Experimental data as given in patent publication US20100174066A1, “PROCESS FOR PREPARING CRYSTALLINE FORM I OF OLANZAPINE” (priority 2005, published 2010).

Experiment: Heat sensitivity of olanzapine Form I wet crystals dried in an air tray drier; Form II content quantified by XRPD
Format: physicochemical
Conditions: 8 hours, LOQ about 0.5% by weight
Method: Olanzapine Form I wet crystals obtained by following the process similar to that given in Example 1 were taken and dried at different temperatures in an air tray drier for 8 hours to check the impact on the crystalline purity of Form I obtained. The results are tabulated below in Table 1:
497.5 mg of olanzapine Form I and 2.5 mg of olanzapine Form II (weight ratio of olanzapine Form Ito Form II of 99.5:0.5) were weighed and mixed with 50.0 mg of lithium fluoride. The mixture was mixed and ground three times using a mortar and pestle made of agate to get a homogeneous fine powder. A maximum quantity of the finely ground sample was packed in a sample holder and this was used as the standard for powder X-ray diffraction analysis.
500 mg of olanzapine Form I test sample was weighed and mixed with 50 mg of lithium fluoride. The mixture was mixed and ground three times using a mortar and pestle made of agate to get a homogeneous fine powder. A maximum quantity of the finely ground sample was packed in a sample holder and this was used as the test sample for the analysis.
The standard and the test sample were analyzed and the intensity at 8.60° (2θ) in the diffractogram of the test sample was compared with respect to that of the 0.5% standard. If the test sample intensity at 8.60° (2θ) is more than that of the 0.5% standard, then the presence of Form II in Form I is more than 0.5%. If the test sample intensity at 8.60° (2θ) is less than that of the 0.5% standard, then the presence of Form II in Form I is less than 0.5%.

Compound: Cc1cc2c(s1)Nc1ccccc1N=C2N1CCN(C)CC1 [Olanzapine Form I, 2-methyl-4-(4-methyl-1-piperazinyl)-10H-thieno[2,3-b][1,5]benzodiazepine]
- Form II content (%) (drying temperature 60 °C): Less than 0.5%
- Form II content (%) (drying temperature 75-80 °C): Less than 0.5%
- Form II content (%) (drying temperature 100 °C): Less than 0.5%
- Form II content (%) (drying temperature 125 °C): More than 0.5%
- Form II content (%) (drying temperature 150 °C): More than 0.5%
- Form II content (%) (drying temperature 180 °C): More than 0.5%
